Source: ChEMBL document CHEMBL6109064, “Functional and structural polypharmacology of indazole-based privileged ligands to tackle the undruggability of membrane transporters” (Eur J Med Chem, 2025)

Tests used:
[1] = target: T1, Monocarboxylate transporter 1 (Homo sapiens, UniProt P53985); assay: Inhibition of MCT-1 in human A549 cells assessed as potentiation of 3-BP-mediated cytotoxicity by measuring decrease in cell viability incubated for 72 hrs in presence of 3-BP by MTT assay; format: cell-based
T1 sequence (P53985 whole entry): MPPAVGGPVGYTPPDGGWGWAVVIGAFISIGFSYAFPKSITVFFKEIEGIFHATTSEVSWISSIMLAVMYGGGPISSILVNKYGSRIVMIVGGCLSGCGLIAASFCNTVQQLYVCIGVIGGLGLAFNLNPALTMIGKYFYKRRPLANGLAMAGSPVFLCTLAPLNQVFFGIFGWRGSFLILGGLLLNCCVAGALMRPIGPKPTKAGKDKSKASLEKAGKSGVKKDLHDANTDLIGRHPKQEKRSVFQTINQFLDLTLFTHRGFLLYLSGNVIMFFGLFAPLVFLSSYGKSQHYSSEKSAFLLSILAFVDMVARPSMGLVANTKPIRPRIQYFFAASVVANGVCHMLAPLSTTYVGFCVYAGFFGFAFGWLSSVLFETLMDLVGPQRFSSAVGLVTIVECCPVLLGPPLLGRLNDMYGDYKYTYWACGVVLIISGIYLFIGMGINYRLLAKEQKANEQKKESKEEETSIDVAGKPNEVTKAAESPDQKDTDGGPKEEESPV

[2] = tested on: MCF7; assay: Cytotoxicity against MCT1 expressing human MCF7 cells assessed as inhibition of cell growth incubated for 72 hrs by MTT assay; format: functional
[3] = tested on: A549; assay: Cytotoxicity against MCT1 expressing human A549 cells assessed as inhibition of cell growth incubated for 72 hrs by MTT assay; format: functional
[4] = target: T2, Monocarboxylate transporter 4 (Homo sapiens) (UniProt O15427); assay: Reversal of MCT4-mediated multidrug resistance in human MDA-MB-231 cells assessed as fold increase in doxorubicin-mediated cytotoxicity incubated for 72 hrs in presence of doxorubicin by MTT assay relative to control; format: cell-based
T2 sequence (whole entry): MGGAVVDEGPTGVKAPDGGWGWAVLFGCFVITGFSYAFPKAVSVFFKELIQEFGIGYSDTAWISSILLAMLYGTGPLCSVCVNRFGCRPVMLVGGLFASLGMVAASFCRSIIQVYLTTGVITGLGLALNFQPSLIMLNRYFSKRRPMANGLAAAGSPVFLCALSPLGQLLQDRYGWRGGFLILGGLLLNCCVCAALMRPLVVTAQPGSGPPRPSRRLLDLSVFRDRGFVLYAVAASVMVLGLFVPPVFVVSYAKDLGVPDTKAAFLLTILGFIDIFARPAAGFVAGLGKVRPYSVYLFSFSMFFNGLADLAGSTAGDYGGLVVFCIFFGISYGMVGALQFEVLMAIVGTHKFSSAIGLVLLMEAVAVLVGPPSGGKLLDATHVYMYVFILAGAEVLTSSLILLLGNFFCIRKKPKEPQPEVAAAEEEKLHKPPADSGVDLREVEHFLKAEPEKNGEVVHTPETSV

[5] = target: T3, Broad substrate specificity ATP-binding cassette transporter ABCG2 (Homo sapiens, UniProt Q9UNQ0); assay: Ratio of IC50 for inhibition of ABCG2 (unknown origin) expressed in dog MDCK-II-BCRP cells using pheophorbide as tracer to EC50 for reversal of ABCG2 (unknown origin)-mediated multidrug resistance transfected in dog MDCK-II-BCRP cells in presence of SN-38; format: cell-based
T3 sequence (Q9UNQ0 whole entry): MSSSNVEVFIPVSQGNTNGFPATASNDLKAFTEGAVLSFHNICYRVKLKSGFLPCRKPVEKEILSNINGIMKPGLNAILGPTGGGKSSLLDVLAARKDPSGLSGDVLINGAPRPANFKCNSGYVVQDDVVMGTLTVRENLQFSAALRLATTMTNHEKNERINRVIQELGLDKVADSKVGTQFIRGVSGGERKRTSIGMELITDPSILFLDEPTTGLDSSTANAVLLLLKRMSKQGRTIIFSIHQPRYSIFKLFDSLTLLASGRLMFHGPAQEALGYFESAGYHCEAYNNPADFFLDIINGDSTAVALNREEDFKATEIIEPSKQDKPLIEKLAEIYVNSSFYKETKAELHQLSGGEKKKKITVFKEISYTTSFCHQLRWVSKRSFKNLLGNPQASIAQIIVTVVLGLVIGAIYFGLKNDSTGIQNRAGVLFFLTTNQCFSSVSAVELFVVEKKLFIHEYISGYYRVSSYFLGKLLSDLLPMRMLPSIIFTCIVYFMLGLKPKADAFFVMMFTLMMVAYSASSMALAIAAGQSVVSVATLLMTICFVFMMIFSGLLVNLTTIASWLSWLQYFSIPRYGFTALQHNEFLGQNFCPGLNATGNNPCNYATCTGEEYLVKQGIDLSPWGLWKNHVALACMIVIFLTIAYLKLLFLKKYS

[6] = tested on: MDA-MB-231; assay: Cytotoxicity against human MDA-MB-231 cells assessed as inhibition of cell growth by MTT assay; format: functional
[7] = target: T3, Broad substrate specificity ATP-binding cassette transporter ABCG2; assay: Ratio of IC50 for inhibition of ABCG2 (unknown origin) expressed in dog MDCK-II-BCRP cells using Hoechst 33342 as tracer to EC50 for reversal of ABCG2 (unknown origin)-mediated multidrug resistance transfected in dog MDCK-II-BCRP cells in presence of SN-38; format: cell-based
[8] = target: T3, Broad substrate specificity ATP-binding cassette transporter ABCG2; assay: Reversal of ABCG2 (unknown origin)-mediated multidrug resistance transfected in dog MDCK-II-BCRP cells assessed as increase in SN-38-mediated cytotoxicity incubated for 72 hrs in presence of SN-38 by MTT assay; format: cell-based

Row | SMILES | IC50 [1] | GI50 [2] [µM] | GI50 [3] [µM] | fold change (FC) [4] | Ratio IC50/EC50 [5] | GI50 [6] [µM] | Ratio IC50/EC50 [7] | EC50 [8]
1 | COc1cccc(NC(=O)c2nn(CC(=O)Nc3ccccc3OC)c3ccccc23)c1 | Not_active | – | – | – | – | – | – | –
2 | O=C(Cn1nc(C(=O)Nc2cccnc2)c2ccccc21)Nc1ccc(Cl)cc1 | – | 10.8 | 28.6 | 3.85 | > 13 | 30 | > 5 | –
3 | COc1cccc(NC(=O)Cn2nc(C(=O)Nc3cccc(OC)c3)c3ccccc32)c1 | Not_active | – | – | – | – | – | – | Not_active
4 | O=C(Cn1nc(C(=O)Nc2ccccn2)c2ccccc21)Nc1cc(Cl)ccc1Cl | – | – | 37.1 | 3.52 | – | 29.9 | – | –
